Source: patent publication US20250288704A1, “CXCR4-LIGANDS FOR DIAGNOSTIC AND THERAPEUTIC USE AND PRECURSORS THEREOF” (priority 2021, published 2025)
Where two headings read alike, the source gives them in different places. Non-standard residues stand in square brackets, D forms with d. Residues, ends and D or L forms follow the SMILES beside them. Groups on a side chain read outwards from the residue. *: point of attachment. 2Nal = N[C@@H](Cc1ccc2ccccc2c1)C(=O)O; dNMeOrn = CN[C@H](CCCN)C(=O)O; 4Abz = Nc1ccc(C(=O)O)cc1; X1 = NCCNCC(CNCCN)C(=O)*; dDap = NC[C@@H](N)C(=O)O

Columns and labels:
[1] = Biodistribution in Jurkat tumor-bearing CB-17 SCID mice; format: in vivo; conditions: female, CB-17 SCID, mouse, in vivo, iv, total radioactivity, 1 h p.i., Jurkat xenograft, CB-17 SCID female mice
Method in brief: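 CB17-SCID mice bore subcutaneous Jurkat xenografts (2-3×10^7 cells in Matrigel, shoulder), used at 5-8 mm tumor diameter. About 0.5-20 MBq (0.02-0.20 nmol) of 125I-, 177Lu-, 99mTc-, 18F- or 68Ga-labeled ligand given by tail vein; organs weighed and γ-counted after set times.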

CXCR4 [2] = biological target: T1, CXCR4 (Homo sapiens, UniProt P61073); assay: Determination of inverse IC50 (invIC50): radiolabeled peptide displaced by Fc-131 on Jurkat cells; conditions: read-out: invIC50; radiolabeled compound displaced by Fc-131, Jurkat cells
T1 sequence (P61073 whole entry): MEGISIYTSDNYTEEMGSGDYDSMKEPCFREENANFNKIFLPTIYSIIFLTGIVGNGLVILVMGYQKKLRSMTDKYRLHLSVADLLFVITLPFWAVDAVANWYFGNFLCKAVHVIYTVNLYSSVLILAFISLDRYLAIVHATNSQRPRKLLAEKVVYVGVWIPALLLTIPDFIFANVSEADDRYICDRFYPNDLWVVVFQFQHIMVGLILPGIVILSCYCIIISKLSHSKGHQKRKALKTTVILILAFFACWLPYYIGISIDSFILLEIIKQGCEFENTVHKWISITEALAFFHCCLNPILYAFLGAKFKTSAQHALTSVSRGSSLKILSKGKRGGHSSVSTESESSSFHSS
Procedure: For in vitro experiments, cells were counted in a hemocytometer using trypan blue as contrast agent. The cell suspension was centrifuged, and the pellet resuspended in HBSS (+1 wt % BSA) to a concentration of 2 mio cells/mL. 8×3 polystyrene tubes were loaded with 25 μL of the standard ligand ^125I-Fc-131 (see 4.1, 1.00 nM in HBSS) and 25 μL of the ligand to investigate in the respective concentration (10^−4-10^−10 M, n=3 for each concentration). 200 μL of cell suspension (400.000 cells per well) were added to obtain a final peptide concentration range of 10^−5-10^−11 M. The tubes were cooled for 2 h at 8° C. to prevent internalization. The experiment was stopped by removal of the supernatant. 200 μL HBSS were added onto the cells, the suspension centrifuged, and the supernatant pooled with the respective first fractions. This step was repeated once more before the tubes containing the supernatants and the ones containing the cell pellets were subjected to activity measurement in the γ-counter.
For the determination of inverse IC50 (invIC50) values the protocol for the determination of regular IC50 values was resumed with minor changes. The peptide under investigation was radioactively labeled and a stock solution was prepared in HBSS (2.00 nM). A concentration gradient of the standard ligand Fc-131 was prepared in HBSS (10^−4-10^−10 M). A cell tube was then containing 25 μL of the radioactive peptide solution, 25 μL of the respective Fc-131 solution and 200 μL cell suspension (400.000 cells). The experiment was conducted as described above.

[3] = Octanol/PBS partition coefficient (logD7.4); format: physicochemical; conditions: n-octanol/PBS pH 7.4, radiolabeled compound
Procedure: The tubes were vortexed at maximum speed for 3 min to ensure equilibrium before centrifugation at 15.000×g for 5 min on a Biofuge 15 from Heraeus Holding GmbH (Osterode, Germany). An aliquot of 100 μL of each fraction was measured in the γ-counter and the log D7.4 calculated as follows: […]

[4] = Procedure: The radiosynthesis of [^99mTc]CXCR4-Tc-14 was performed manually, as described in chapter 4.2.3 above. Images were acquired after injection of 430-604 MBq of [^99mTc]CXCR4-Tc-14 at 5 min to 21 h p.i. Details of the scanning procedure are set out below.
Clinical evaluation of [^99mTc]CXCR4-Tc-14 in patients was conducted under compassionate use in compliance with the German Medicinal Products Act, AMG § 13 2b, and in accordance with the responsible authorities (Government of Oberbayern). First proof-of-concept studies were performed at the Universitätsklinikum Augsburg (Augsburg, Germany).
All subjects were examined on a Discovery MN CT 670 Pro equipped with an Optima 540 CT (GE Healthcare, Solingen, Germany). Full-body SPECT/CT scans at 5 and 60 min after tracer injection were acquired with a scanning speed of 30 cm/min, scans at 120 and 300 min were acquired with a scanning speed of 12 cm/min and scans at 21 h were acquired with a scanning speed of 5 cm/min. The scans were obtained in 60 subsets using the double-head technology in matrices of 128×128 (zoom 1). SPECT scans at 60 and 180 min after tracer injection were acquired with an exposure time of 8 sec per subset and scans at 21 h were acquired with an exposure time of 16 sec per subset. Emission data were smoothed applying a Butterworthfilter (0.48) and reconstructed iteratively by an ordered-subsets expectation maximization algorithm (2 iterations, 10 subsets). Images were obtained after injection of 430-604 MBq of [^99mTc]CXCR4-Tc-14 at 5 min to 21 h p.i.
The specific and effective doses in selected organs were analyzed. For calculation of the doses, voxels of interest were defined around areas with increased uptake in full-body images. Time-activity curves for the respective organs were automatically determined and the residence time of the tracer calculated using the specific calibration of the SPECT camera and a standard activity value. The residence time was used as the input data for the Olinda/EXM software. The output of this calculation was referred to the dosimetry guideline of the International Commission on Radiological Protection.

[5] = tested on: CXCR4-expressing Chem_1 cells; assay: Determination of internalization, dual tracer with 125I-Fc-131; format: cell-based; conditions: for Cell-bound [%] / Internalized [%]: of total cellular activity
Method in brief: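 Chem_1 cells grown in DMEM-F12 with 10% FBS at 37 °C; wells (n=3 per time point) received medium or AMD3100 (1 mM stock) to block receptors. Unbound, surface-bound and NaOH-lysed internalized fractions were γ-counted; data corrected for non-specific internalization and referred to standard ligand specific internalization.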

U2932 cells [6] = conditions: 72 h, increasing amounts of PDC
Procedure: For that purpose, cells were fixed, permeabilized and treated with propidium iodide. The number of cells in the G0/G1-, S— and G2/M-phase was then measured with regards to the amount of PDC used.

CXCR4 [7] = biological target: T1, CXCR4; assay: Determination of IC50: competition with 125I-Fc-131 on CXCR4-positive Jurkat cells; format: binding; design: CXCR4-positive Jurkat T lymphocyte cells were grown in Gibco's RPMI 1640 GlutaMAX medium; endogenous in cells; host or cells: Jurkat T lymphocyte cells (whole cells in suspension, 400.000 per tube);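 further: test compound at 10^−5 to 10^−11 M competed for 2 h at 8 °C with the radioligand on 400,000 cells per well, bound versus free activity measured by γ-counting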
U2932 cells [8] = conditions: 10, 20, 40, 100 nM, 24-96 h
Procedure: (§1) Two cell lines were selected for the respective experiments. The B-cell lymphoma cell line U2932 and the higher CXCR4 expressing lymphoblast-like Raji cell line. Both cell lines were incubated with the PDC for 24, 48, 72 and 96 hours in varying concentrations of 0 (Blank), 10, 20, 40 and 100 nM.

[9] = patient, multiple myeloma, 604 MBq

Procedure for Raji cells: as §1

C[C@@H](NC(=O)[C@@H](CCCNC(=N)N)NC(=O)[C@@H](CN)NC(=O)C(CNCCN)CNCCN)C(=O)Nc1ccc(C(=O)NCCC[C@@H]2C(=O)N[C@@H](CCCNC(=N)N)C(=O)N[C@@H](Cc3ccc4ccccc4c3)C(=O)NCC(=O)N[C@H](Cc3ccc(O)cc3)C(=O)N2C)cc1 [Tc-CXCR4-14] (cyclo([dY][dNMeOrn]([4Abz-dA-dR-dDap-X1])R[2Nal]G))
tissue uptake at 1 h ([1]; Blood, read-out: % iD/g Blood): 1.62 %ID/g | tissue uptake at 1 h ([1]; Bone, read-out: % iD/g Bone): 1.31 %ID/g | tissue uptake at 1 h ([1]; Heart, read-out: % iD/g Heart): 1.21 %ID/g | tissue uptake at 1 h ([1]; Intestine, read-out: % iD/g Intestine): 0.92 %ID/g | tissue uptake at 1 h ([1]; Liver, read-out: % iD/g Liver): 7.67 %ID/g | tissue uptake at 1 h ([1]; Lung, read-out: % iD/g Lung): 3.99 %ID/g | tissue uptake at 1 h ([1]; Pancreas, read-out: % iD/g Pancreas): 0.56 %ID/g | tissue uptake at 1 h ([1]; Stomach, read-out: % iD/g Stomach): 1.97 %ID/g | tissue uptake at 1 h ([1]; Tumor, read-out: % iD/g Tumor): 8.63 %ID/g | IC50 (CXCR4 [2]): 10.2 nM | logD7.4 ([3]; listed as [^99mTc]CXCR4-Tc-14): −1.75 | delivered whole-body dose ([4]; 604 MBq injected): 3.8 mSv | whole-body effective dose ([4]; patient, multiple myeloma): 6.3 μSv/MBq | specific dose, kidneys [4, 9]: 10 μGy/MBq | specific dose, liver [4, 9]: 14 μGy/MBq | specific dose, osteogenic cells [4, 9]: 13 μGy/MBq | specific dose, red bone marrow [4, 9]: 11 μGy/MBq | specific dose, spleen [4, 9]: 47 μGy/MBq | Internalized in relation to 125I-Fc-131 [%] ([5]; 10 min): 486 ± 18.9% | Cell-bound [%] ([5]; 10 min): 0.67 ± 0.14% | Internalized [%] ([5]; 10 min): 17.9 ± 0.59% | Internalized in relation to 125I-Fc-131 [%] ([5]; 30 min): 683 ± 51.3% | Cell-bound [%] ([5]; 30 min): 1.56 ± 0.41% | Internalized [%] ([5]; 30 min): 30.2 ± 0.74% | Internalized in relation to 125I-Fc-131 [%] ([5]; 60 min): 742 ± 45.2% | Cell-bound [%] ([5]; 60 min): 0.91 ± 0.14% | Internalized [%] ([5]; 60 min): 36.4 ± 0.20% | Internalization [% Fc-131] ([5]; 120 min): 666 (120 min) % Fc-131 | Internalized in relation to 125I-Fc-131 [%] ([5]; 120 min): 694 ± 42.5% | Cell-bound [%] ([5]; 120 min): 1.11 ± 0.48% | Internalized [%] ([5]; 120 min): 37.9 ± 0.56% | Internalization (in % of 125I-FC-131) ([5]; time not given): 742%

CC[C@H](C)[C@@H]([C@@H](CC(=O)N1CCC[C@H]1[C@H](OC)[C@@H](C)C(=O)N[C@H](C)C(O)c1ccccc1)OC)N(C)C(=O)[C@@H](NC(=O)[C@H](C(C)C)N(C)C(=O)OCc1ccc(NC(=O)[C@H](CCCNC(N)=O)NC(=O)[C@@H](NC(=O)CCCCCN2C(=O)CC(SCC[C@@H](N)C(=O)NC(CCCNC(=N)N)C(=O)N[C@H](C)C(=O)Nc3ccc(C(=O)NCCC[C@@H]4C(=O)N[C@@H](CCCNC(=N)N)C(=O)N[C@H](Cc5ccc6ccccc6c5)C(=O)NCC(=O)N[C@@H](Cc5ccc(O)cc5)C(=O)N4C)cc3)C2=O)C(C)C)cc1)C(C)C (stereo partly drawn) [CXCR4-MMAE-2]
cells in G2/M-phase (U2932 cells [6]): higher number of cells stuck in the G2/M-phase | fraction of dead cells (Raji cells; 96 h, 10, 20 and 40 nM, Raji vs U2932): considerably higher fraction of dead Raji cells compared to the U2932 cells | cell viability (Raji cells; Raji cells, 10, 20, 40, 100 nM, 24-96 h): decreased cell viabilities | logD7.4 [3]: 1.11 ± 0.08 (5) | IC50 (CXCR4 [7]): 42.6 ± 8.3 nM | cell viability (U2932 cells [8]): decreased cell viabilities | Internalization 2 h [% of bound peptide] ([5]; 2 h, 125I-labeled): 27.9 ± 1.14 % of bound peptide
